Common to all, as to type: cell-based, human
One data set has as its system phospho-tau. The data set can be described thus: phospho-tau expression, Western blot / MICE assay. Particulars: PNET2 cells induced to express AD7c-NTP; relative to PDGF-stimulated cultures. The text has this: Standard Western blot assays wew used to measure cellular levels of p53, Bcl-2, p21/Waf1, phospho-tau, tau, c-fos, NTP, and activated (phosphorylated) forms of Erk mitogen activated protein (MAP) kinase, amino-terminal c-jun-activated kinase (pJNK), and p38/HOG1. Immunoprecipitation followed by Western blot analysis was used to measure p85 subunit associated with IRS1. For Western blot analysis of p53 Bcl-2, phospho-tau, tau, c-fos, and NTP, the cells were lysed in ice cold radioimmunoprecipitation assay (RIPA) buffer supplemented with protease and phosphatase inhibitors. […] Protein concentrations were measured using the BCA assay (Pierce, Rockford, Ill.). Samples containing 60 μg of protein were fractionated by sodium dodecyl sulfate polyacrylamide gel electrophoresis (SDS-PAGE), then transferred to PVDF membranes, and analyzed by Western immunoblotting. Immunoreactivity was detected with horseradish peroxidase conjugated secondary IgG and PicoWest enhanced chemiluminescence reagents (Pierce Chemical Company, Rockford, Ill.). CAT activity was measured using known methods.
The MICE assay is known in the art (e.g., as described by de la Monte et al., 1999, Biotechniques 26:107301076). […] Immunoreactivity was detected using horseradish peroxidase conjugated secondary antibody (Pierce, Rockford, Ill.) and the TMB soluble peroxidase substrate (Pierce, Rockford, Ill.). […]

The test system of a further data set is phospho-Erk MAPK. Put plainly: Growth factor stimulated phospho-Erk MAPK, Western blot. An excerpt: (§1) Standard Western blot assays wew used to measure cellular levels of p53, Bcl-2, p21/Waf1, phospho-tau, tau, c-fos, NTP, and activated (phosphorylated) forms of Erk mitogen activated protein (MAP) kinase, amino-terminal c-jun-activated kinase (pJNK), and p38/HOG1. Immunoprecipitation followed by Western blot analysis was used to measure p85 subunit associated with IRS1. For Western blot analysis of p53 Bcl-2, phospho-tau, tau, c-fos, and NTP, the cells were lysed in ice cold radioimmunoprecipitation assay (RIPA) buffer supplemented with protease and phosphatase inhibitors. For the immunoprecipitation studies, Western blot analysis of phospho-Erk, pJNK, and p38, and the PI3 kinase assays, the cells were harvested in Triton lysis buffer supplemented with protease and phosphatase inhibitors. Protein concentrations were measured using the BCA assay (Pierce, Rockford, Ill.). Samples containing 60 μg of protein were fractionated by sodium dodecyl sulfate polyacrylamide gel electrophoresis (SDS-PAGE), then transferred to PVDF membranes, and analyzed by Western immunoblotting. Immunoreactivity was detected with horseradish peroxidase conjugated secondary IgG and PicoWest enhanced chemiluminescence reagents (Pierce Chemical Company, Rockford, Ill.). CAT activity was measured using known methods.
(§2) The potential mechanisms by which the differential effects of insulin, IGF1 and PDGF might occur were explored by examining pathways, which mediate PNET2 neuronal apoptosis and neuritic sprouting. […] Western blot analysis was performed with cell lysates obtained from cultures stimulated with insulin, IGF1, or PDGF for 0-30 minutes or 24 hours with equivalent protein loading (60 μg/sample). The membranes were probed using antibodies to Erk, phospho-Erk, Jun, and phospho-JNK. […] In contrast, after 24 hours of AD7c-NTP gene induction and growth factor stimulation, high levels of phospho-Erk MAPK were detected in the IGF-1 and PDGF-stimulated cultures, but not in the serum-starved or insulin-stimulated cultures. […] In contrast, the levels of c-fos transcription factor were equally expressed after 24 hours IPTG induction of AD7c-NTP expression and either serum starvation or stimulation with insulin, IGF1 or PDGF.

In the next data set the test system is phospho-JNK. Put plainly: Growth factor stimulated phospho-JNK, Western blot. Particulars: 5-30 min stimulation.
Source text: as §1, §2
In general terms: Immunoblotting shows a protein as a band on a membrane.

In data set [1] the test system is PY-PI3 kinase (total PI3 kinase). Put plainly: PI3 kinase activity in anti-phospho-tyrosine (PY) immunoprecipitates. To be noted: 24 or 48 hours of stimulation. On the procedure:
The cells were harvested in Triton lysis buffer supplemented with protease and phosphatase inhibitors. Total PI3K was immunoprecipitated from 500 μg protein in cell lysates using rabbit polyclonal antibodies to the p85 subunit of PI3K and Protein A sepharose. The immunoprecipitants were incubated for 5 minutes at room temperature with 10 μg of sonicated phosphatidylinositol in HEPES buffer (200 mM HEPES, 4 mM EGTA, 4 mM sodium phosphate, pH 7.0). Reactions were initiated by the addition of 5 μCi [α^32p] ATP, 15 mM MgCl2, 150 mM ATP, 1.5 mM Tris-HCl, pH 7.4, and 15 mM NaCl. After 10 minutes incubation at 30° C., the reactions were stopped by the addition of HCl to a final concentration of 1.2 N, followed by chloroform/methanol extraction. Phosphorylated lipids were analyzed by thin layer chromatography using gel plates pre-coated with 1% oxalate (Merck, White House Station, N.J.). PI3K activity was measured with a phosphorimager.
PI3 kinase is an important mediator of neuronal survival. The pro-survival effects of PI3K are mediated through activation of Akt (protein kinase B) and phosphorylation of Bad to render it inactivated. Inhibition of PI3 kinase activity is associated with PNET2 cell apoptosis. Therefore, experiments were carried out to determine if growth factor stimulated PI3 kinase activity was inhibited in insulin or IGF-1-stimulated cultures. Such inhibition has been observed following chronic ethanol exposure. Since insulin and IGF-1 can activate PI3 kinase through the insulin-receptor substrate-1 (IRS-1) or through IRS-1-independent pathways, both IRS1-associated PI3 kinase and total PI3 kinase activities were measured. These studies were conducted using insulin or PDGF stimulated cultures in which AD7c-NTP gene expression was induced by 3 mM IPTG stimulation. […] Levels of PI3 kinase activity were measured in anti-phospho-tyrosine (PY) immunoprecipitates. […] Similarly, PI3 kinase activity was readily detected in the PY immunoprecipitates prepared with cells stimulated with insulin or PDGF.

With “insulin: Human insulin purchased from Novagen”, the phospho-tau level entry with phospho-tau is reported as “increased levels”. The “phospho-Erk MAPK level, short-term stimulation” value in the data set with phospho-Erk MAPK (0-30 minutes stimulation) is listed as “increased levels”. Further, in the data set with phospho-Erk MAPK (24 hours of AD7c-NTP induction and growth factor stimulation), the “phospho-Erk MAPK level, 24 hours” value was “reduced levels”. The “phospho-JNK level, short-term stimulation” value in the data set on phospho-JNK was “sharply increased and sustained elevations”. In addition, the “PY-PI3 kinase activity, 24 or 48 hours” value in data set [1] is “similar”.

Values taken from US7319094B2, “Increased and sustained in vivo gene expression using a nucleic acid, histone and amphipathic compound composition” (Rhode Island Hospital, priority 2001, dated 2008).
